Measured values: US20240108658A1, “SYNERGISTIC STEM CELL-BASED MEDICATION FOR TREATING MYOCARDIAL INFARCTION AND RELATED APPLICATION” (SOOCHOW UNIVERSITY, priority 2021, published 2024)

Columns and labels:
[1] = system: mouse myocardial infarction modelling (LAD ligation); assay: Ventricular remodeling: HW/BW and Masson staining, myocardial infarction area/heart area; assay type: in vivo, C57BL/6J mice; settings: MSCs + 2-DG 500 mg/kg/day intraperitoneal; 28 days after surgery; FIG. 2
Excerpt: The sham-operated group was only passed through the lower part of the LAD without ligation, and the rest were the same as the model group. After ligation, it turned white from the ligation site to the cardiac apex when observed with the naked eyes. The left ventricular tissue was taken for cardiac tissue staining after 1 week and obvious fibrosis was observed, indicating the successful establishment of the myocardial infarction modelling. […] Masson staining: The mice were euthanized 28 days after surgery, and left ventricular tissue was taken for cardiac tissue staining to observe the therapeutic effect. It was carried out according to the routine Masson staining steps, and the observation and photo-taking were carried out under a regular optical microscope. The image analysis software Image J was used to analyze the area of each part and calculate the myocardial infarction area/heart area.

transplanted MSCs = assay: Survival of transplanted CM-Dil-stained mesenchymal stem cells (immunofluorescence, flow cytometry); settings: MSCs + 2-DG 500 mg/kg/day intraperitoneal; 3rd day after surgery; FIG. 3
[2] = system: mouse myocardial infarction modelling (LAD ligation); assay: Cardiac ultrasound testing of cardiac function after myocardial infarction (EF, FS, LVEDD, LVESD); assay type: in vivo, C57BL/6J mice
Excerpt: The sham-operated group was only passed through the lower part of the LAD without ligation, and the rest were the same as the model group. After ligation, it turned white from the ligation site to the cardiac apex when observed with the naked eyes. The left ventricular tissue was taken for cardiac tissue staining after 1 week and obvious fibrosis was observed, indicating the successful establishment of the myocardial infarction modelling. […] After anesthesia of mice (same method as before) and depilation, the mice lied on the left side, and the probe of the cardiac ultrasound diagnostic instrument was placed on the anterior wall of the heart, a two-dimensional short-axis view of the left ventricle at the papillary muscle level was taken and the M-mode ultrasonic scanning was recorded. And left ventricular ejection fraction (EF), shortening fraction (FS), left ventricular end diastolic diameter (LVEDD), and left ventricular end systolic diameter (LVESD) were measured for three consecutive cardiac cycles.

## O=CC[C@@H](O)[C@H](O)[C@H](O)CO [2-DG, 2-Deoxy-D-glucose]
[1]
  ventricular remodeling of mice treated with MSCs after myocardial infarction: improvement of ventricular remodeling
Transplanted MSCs
  survival of transplanted MSCs: significantly increases the survival of transplanted MSCs
[2]; MSCs 5×105 intramyocardial + 2-DG 500 mg/kg/day intraperitoneal, FIG. 1
  cardiac function of mice treated with MSCs after myocardial infarction: improvement of cardiac function
[2]; conclusion from Examples 1-3, MSCs + 2-DG
  function of MSCs in improving myocardial infarction (overall conclusion): can effectively improve the function of MSCs in improving myocardial infarction
